# Data from patent publication US9253983B2, “Triazole compound and use thereof” (KUREHA CORPORATION, priority 2011, dated 2016).
# Tests used:
# Puccinia recondita [1] = test: Controlling effect on wheat brown rust (leaf rust) by foliage spray treatment (Tests 1 and 2); assay type: in vivo; conditions: foliage spray 0.8 mg/L, 1,000 L/ha, 11 days after inoculation
# Experimental: The wheat plants had been grown in square plastic pots (6 cm×6 cm). The suspensions were left to dry, and inoculated with spores of Puccinia recondita (adjusted at 200 spores per field of vision, Gramin S was added at 60 ppm) by spraying, and kept at 25° C. in a high humidity environment for 48 hours. After that, the plants were kept in a greenhouse. 11 days after the inoculation, the lesion degree of the wheat leaf rust was examined in accordance with the criteria shown in Table 4, and the protective values were calculated by the following equation. Protective value (%)=(1−Average lesion degree in sprayed plot/Average lesion degree in unsprayed plot)×100
# The wheat plants had been grown in square plastic pots (6 cm×6 cm). The leaves were air-dried, and inoculated with spores of Puccinia recondita (adjusted at 200 spores per field of vision, Gramin S was added at 60 ppm) by spraying, and kept at 25° C. in a high humidity environment for 48 hours. After that, the plants were kept in a greenhouse. 11 days after the inoculation, the lesion degree of the wheat leaf rust was examined, and the protective values were calculated as were in Experiment Example 2.
# Puccinia recondita [2] = test: Efficacy of seed treatment on wheat brown rust; assay type: in vivo; conditions: wheat seed treatment 20 g ai/100 kg seeds, 12 days after inoculation
# Experimental: A pot experiment was performed to evaluate the efficacy of seed treatment in controlling wheat leaf rust. Compound (1-1a) and Compound (1-2a), each of which was dissolved in DMSO to make up such a concentration that the seeds would be treated in treatment amount of 20 g ai/100 kg seeds, were each applied to wheat seeds in a vial, and thereafter 8 wheat seeds were sowed on an 80-cm^2 pot. The pot was kept in a greenhouse with water supplied to its bottom. 21 days after the sowing, the wheat seeds were inoculated with Puccinia recondita, and kept in a wet box for 2 days. After that, the pot was again kept in the greenhouse with water supplied to its bottom. 12 days after the inoculation, the percentage of affected area was found, and the protective value was calculated by the following equation. Protective value (%)=(1−(Percentage of affected area in treated region/Percentage of affected area in untreated region))×100
# Phaeosphaeria nodorum = test: Test 1 for antifungal effect, plate medium: P.n; assay type: cell-based; conditions: PDA plate medium
# Experimental: (§1) Compound (1-1a) or Compound (1-2a) was dissolved in dimethyl sulfoxide, and the resulting solution was added to a PDA medium (potato dextrose-agar medium) at about 60° C. The medium and the solution were mixed thoroughly in a conical flask, poured into a petri dish, and allowed to solidify. In this way, a plate medium containing Compound (1-1a) or Compound (1-2a) at a certain concentration was prepared.
# (§2) Meanwhile, test microorganisms cultured on a plate medium in advance were cut out with the use of a cork borer 4 mm in diameter, and were inoculated onto the compound-containing plate medium. After the inoculation, the microorganisms were cultured at their optimum growth temperatures (for example, refer to LIST OF CULTURES 1996 microorganisms 10th edition, Institute for Fermentation (foundation)) for 1 day to 7 days, and their growth was determined by measuring the diameter of their flora. The extent of growth of the microorganisms on the compound-containing plate medium was compared with that of microorganisms on a plate medium where no compound was added, and mycelial growth inhibition rate was calculated by the following equation: R=100(dc−dt)/dc where R is mycelial growth inhibition rate (%), dc is the flora diameter in untreated plate, and dt is the flora diameter in plate treated with the compound.
# (§3) A larger antifungal index indicates a better antifungal effect.
# Gaeumannomyces graminis = test: Test 1 for antifungal effect, plate medium: G.g; assay type: cell-based; conditions: PDA plate medium
# Experimental: as §1, §2, §3
# Gibberella fujikuroi = test: Test 1 for antifungal effect, plate medium: G.f; assay type: cell-based; conditions: PDA plate medium
# Experimental: as §1, §2, §3
# Sclerotinia sclerotiorum = test: Test 1 for antifungal effect, plate medium: S.s; assay type: cell-based; conditions: PDA plate medium
# Experimental: as §1, §2, §3
# Glomerella cingurata = test: Test 1 for antifungal effect, plate medium: G.c; assay type: cell-based; conditions: PDA plate medium
# Experimental: as §1, §2, §3
# Ustilago nuda = test: Test 2 for antifungal effect, plate medium: U.n; assay type: cell-based; conditions: PDA plate medium
# Experimental: as §1, with “(1-1b)” for “(1-1a)”, “(1-2b)” for “(1-2a)”
# (§4) Meanwhile, test microorganisms cultured on a plate medium in advance were cut out with the use of a cork borer 4 mm in diameter, and were inoculated onto the compound-containing plate medium. After the inoculation, the pathogens were cultured at their optimum growth temperatures (for example, refer to LIST OF CULTURES 1996 microorganisms 10th edition, Institute for Fermentation (foundation)) for 1 day to 7 days, and their growth was determined by measuring the diameter of their flora. The extent of growth of the pathogens on the compound-containing plate medium was compared with that of pathogens on a plate medium where no compound was added, and mycelial growth inhibition rate was calculated as in Experiment Example 10. Note that, in Experiment Example 11, controls used in the antifungal effect tests are Compound (1-1a) and Compound (1-2a) instead of Compound (1-1b) and Compound (1-2b), respectively.
# (§5) The results were rated on a 1-to-5 scale as in Experiment Example 10.
# Penicillium italicum = test: Test 2 for antifungal effect, plate medium: P.i; assay type: cell-based; conditions: PDA plate medium
# Experimental: as §1, with “(1-1b)” for “(1-1a)”, “(1-2b)” for “(1-2a)”
# as §4, §5
smiles,measurement,setting,value
"CC1(CCl)CCC(Cc2ccc(F)cc2)C1(O)Cn1cncn1 (single isomer, unassigned) [Compound (1-2a), (1,2-cis, 1,5-cis)-5-(4-fluorobenzyl)-2-chloromethyl-2-methyl-1-(1H-1,2,4-triazole-1-ylmethyl)cyclopentanol]",Protective value (%),Puccinia recondita [1],91%
same,Protective value (%),Puccinia recondita [2],100%
same,Antifungal index (mycelial growth inhibition rate),Phaeosphaeria nodorum; 0.16 mg/L,1 (Less than 60%)
same,Antifungal index (mycelial growth inhibition rate),Phaeosphaeria nodorum; 0.31 mg/L,2 (Less than 70% but not less than 60%)
same,Antifungal index (mycelial growth inhibition rate),Phaeosphaeria nodorum; 0.63 mg/L,5 (90% or greater)
same,Antifungal index (mycelial growth inhibition rate),Phaeosphaeria nodorum; 1.25 mg/L,5 (90% or greater)
same,Antifungal index (mycelial growth inhibition rate),Phaeosphaeria nodorum; 2.50 mg/L,5 (90% or greater)
same,Antifungal index (mycelial growth inhibition rate),Gaeumannomyces graminis; 0.16 mg/L,1 (Less than 60%)
same,Antifungal index (mycelial growth inhibition rate),Gaeumannomyces graminis; 0.31 mg/L,4 (Less than 90% but not less than 80%)
same,Antifungal index (mycelial growth inhibition rate),Gaeumannomyces graminis; 0.63 mg/L,5 (90% or greater)
same,Antifungal index (mycelial growth inhibition rate),Gaeumannomyces graminis; 1.25 mg/L,5 (90% or greater)
same,Antifungal index (mycelial growth inhibition rate),Gaeumannomyces graminis; 2.50 mg/L,5 (90% or greater)
same,Antifungal index (mycelial growth inhibition rate),Gibberella fujikuroi; 0.16 mg/L,4 (Less than 90% but not less than 80%)
same,Antifungal index (mycelial growth inhibition rate),Gibberella fujikuroi; 0.31 mg/L,5 (90% or greater)
same,Antifungal index (mycelial growth inhibition rate),Gibberella fujikuroi; 0.63 mg/L,5 (90% or greater)
same,Antifungal index (mycelial growth inhibition rate),Gibberella fujikuroi; 1.25 mg/L,5 (90% or greater)
same,Antifungal index (mycelial growth inhibition rate),Gibberella fujikuroi; 2.50 mg/L,5 (90% or greater)
same,Antifungal index (mycelial growth inhibition rate),Sclerotinia sclerotiorum; 0.16 mg/L,5 (90% or greater)
same,Antifungal index (mycelial growth inhibition rate),Sclerotinia sclerotiorum; 0.31 mg/L,5 (90% or greater)
same,Antifungal index (mycelial growth inhibition rate),Sclerotinia sclerotiorum; 0.63 mg/L,5 (90% or greater)
same,Antifungal index (mycelial growth inhibition rate),Sclerotinia sclerotiorum; 1.25 mg/L,5 (90% or greater)
same,Antifungal index (mycelial growth inhibition rate),Sclerotinia sclerotiorum; 2.50 mg/L,5 (90% or greater)
same,Antifungal index (mycelial growth inhibition rate),Glomerella cingurata; 0.16 mg/L,5 (90% or greater)
same,Antifungal index (mycelial growth inhibition rate),Glomerella cingurata; 0.31 mg/L,5 (90% or greater)
same,Antifungal index (mycelial growth inhibition rate),Glomerella cingurata; 0.63 mg/L,5 (90% or greater)
same,Antifungal index (mycelial growth inhibition rate),Glomerella cingurata; 1.25 mg/L,5 (90% or greater)
same,Antifungal index (mycelial growth inhibition rate),Glomerella cingurata; 2.50 mg/L,5 (90% or greater)
same,Antifungal index (mycelial growth inhibition rate),Ustilago nuda; 0.04 mg/L,1 (Less than 60%)
same,Antifungal index (mycelial growth inhibition rate),Ustilago nuda; 0.08 mg/L,1 (Less than 60%)
same,Antifungal index (mycelial growth inhibition rate),Ustilago nuda; 0.16 mg/L,1 (Less than 60%)
same,Antifungal index (mycelial growth inhibition rate),Ustilago nuda; 0.31 mg/L,1 (Less than 60%)
same,Antifungal index (mycelial growth inhibition rate),Ustilago nuda; 0.63 mg/L,1 (Less than 60%)
same,Antifungal index (mycelial growth inhibition rate),Ustilago nuda; 1.25 mg/L,2 (Less than 70% but not less than 60%)
same,Antifungal index (mycelial growth inhibition rate),Penicillium italicum; 0.04 mg/L,1 (Less than 60%)
same,Antifungal index (mycelial growth inhibition rate),Penicillium italicum; 0.08 mg/L,1 (Less than 60%)
same,Antifungal index (mycelial growth inhibition rate),Penicillium italicum; 0.16 mg/L,3 (Less than 80% but not less than 70%)
same,Antifungal index (mycelial growth inhibition rate),Penicillium italicum; 0.31 mg/L,4 (Less than 90% but not less than 80%)
same,Antifungal index (mycelial growth inhibition rate),Penicillium italicum; 0.63 mg/L,5 (90% or greater)
same,Antifungal index (mycelial growth inhibition rate),Penicillium italicum; 1.25 mg/L,5 (90% or greater)
